The values that follow come from patent publication US20250179050A1, “POLYMORPH AS THYROID HORMONE RECEPTOR AGONISTS AND USE THEREOF” (XIZANG HAISCO PHARMACEUTICAL CO., LTD., priority 2022, published 2025).

This data set in a line: Thermal crystal transformation test (hot stage, XRPD). The data set is classed as physicochemical. Particulars: for Results (crystal form after thermal crystal transformation, XRPD): heating rate 10° C./min, holding time 1 min. As for the experimental part:
The present invention further provides a method for preparing the polymorph of any one of Form A to Form Z, including: • (1) suspension method: adding a crude free base of the compound of formula I (which can be prepared according to the methods described in WO 2019240938 A1) to a selected single or binary solvent until a suspension is formed and stirring same under suspension at room temperature to 50° C. for a period of time (e.g., 1 h to 3 days, or 2 h to 24 h, or 2 h to 12 h, or 3 h to 5 h), and then centrifuging and separating the suspension, followed by drying, to obtain the product; or • (2) Anti-solvent crystallization method: adding a crude free base of the compound of formula I to an appropriate amount of a good solvent until completely dissolved, taking an amount of the solution and dropwise adding same to a poor solvent or dropwise adding a poor solvent to the solution, and stirring same to precipitate a solid, followed by separation and drying to obtain the product; or • (3) cooling method: adding a crude free base of the compound of formula I to an appropriate amount of a solvent at 50-80° C. until the solid is just completely dissolved, and transferring the solution to an environment at room temperature for cooling, followed by leaving to stand or crystallization under stirring, separation and drying to obtain the product; or • (4) vapor diffusion method: dropwise adding an appropriate amount of a good solvent to an amount of a crude free base of the compound of formula I at room temperature to completely dissolve the sample or formulating same as a saturated solution of a good solvent; and separately taking an amount of the solution, and leaving the clear solution to stand in a poor solvent atmosphere at room temperature until a solid precipitates out, followed by separation, to obtain the product; or • (5) thermal crystal transformation method: placing an amount of the sample on a glass plate on a hot stage, heating same to the target temperature at a rate (e.g., 5-20° C./min, or 10-15° C./min), and maintaining the temperature for a period of time (e.g., 0.5-5 min, or 1-3 min, or 1-2 min), followed by naturally cooling down to room temperature to obtain a solid.
The different crystal forms, as raw materials, were heated to the target temperature on a hot table and held for 1 min, and cooled to room temperature to obtain solids for the XRPD test.

For the compound `[2H]C([2H])([2H])[C@@H]1CCc2c(Oc3c(Cl)cc(-n4nc(C#N)c(=O)[nH]c4=O)cc3Cl)n[nH]c(=O)c21` [Form N, (R)-2-(3,5-dichloro-4-((7-(methyl-d3)-1-oxo-2,5,6,7-tetrahydro-1H-cyclopenta [d]pyridazin-4-yl)oxy)phenyl)-3,5-dioxo-2,3,4,5-tetrahydro-1,2,4-triazine-6-carbonitrile], the “crystal form after thermal crystal transformation” value (heated to 235° C. or more) is recorded as “Form C with a slightly less crystallinity”. Moreover, the “Results (crystal form after thermal crystal transformation, XRPD)” value (from here on “Results”) (target temperature 235° C.) was “Form C”. As for `[2H]C([2H])([2H])[C@@H]1CCc2c(Oc3c(Cl)cc(-n4nc(C#N)c(=O)[nH]c4=O)cc3Cl)n[nH]c(=O)c21` [Form K, (R)-2-(3,5-dichloro-4-((7-(methyl-d3)-1-oxo-2,5,6,7-tetrahydro-1H-cyclopenta [d]pyridazin-4-yl)oxy)phenyl)-3,5-dioxo-2,3,4,5-tetrahydro-1,2,4-triazine-6-carbonitrile], the “crystal form after thermal crystal transformation” value (heated to 260° C. or more) was “Form C”. On to `[2H]C([2H])([2H])[C@@H]1CCc2c(Oc3c(Cl)cc(-n4nc(C#N)c(=O)[nH]c4=O)cc3Cl)n[nH]c(=O)c21` [Form A, (R)-2-(3,5-dichloro-4-((7-(methyl-d3)-1-oxo-2,5,6,7-tetrahydro-1H-cyclopenta [d]pyridazin-4-yl)oxy)phenyl)-3,5-dioxo-2,3,4,5-tetrahydro-1,2,4-triazine-6-carbonitrile], for which the “crystal form after thermal crystal transformation” value is given as “Form A” (heated to 150° C.) and “Form C” (heated to 300° C.). For the same compound, the “Results” value reads like this: (target temperature 150° C.) “Form A”; (target temperature 300° C.) “Form C”. Regarding `[2H]C([2H])([2H])[C@@H]1CCc2c(Oc3c(Cl)cc(-n4nc(C#N)c(=O)[nH]c4=O)cc3Cl)n[nH]c(=O)c21` [Form F, (R)-2-(3,5-dichloro-4-((7-(methyl-d3)-1-oxo-2,5,6,7-tetrahydro-1H-cyclopenta [d]pyridazin-4-yl)oxy)phenyl)-3,5-dioxo-2,3,4,5-tetrahydro-1,2,4-triazine-6-carbonitrile], the “crystal form after thermal crystal transformation” value (heated to 230° C. or more) is on record as “Form C”. Moreover, the “Results” value (target temperature 230° C.) is recorded as “Form C”. Take `[2H]C([2H])([2H])[C@@H]1CCc2c(Oc3c(Cl)cc(-n4nc(C#N)c(=O)[nH]c4=O)cc3Cl)n[nH]c(=O)c21` [Form E, (R)-2-(3,5-dichloro-4-((7-(methyl-d3)-1-oxo-2,5,6,7-tetrahydro-1H-cyclopenta [d]pyridazin-4-yl)oxy)phenyl)-3,5-dioxo-2,3,4,5-tetrahydro-1,2,4-triazine-6-carbonitrile]: the “crystal form after thermal crystal transformation” value (by desolvation) is “Form C”. In addition, under “target temperature 180° C.”, the “Results” value is given as “Form C”. Take `[2H]C([2H])([2H])[C@@H]1CCc2c(Oc3c(Cl)cc(-n4nc(C#N)c(=O)[nH]c4=O)cc3Cl)n[nH]c(=O)c21` [Form R, (R)-2-(3,5-dichloro-4-((7-(methyl-d3)-1-oxo-2,5,6,7-tetrahydro-1H-cyclopenta [d]pyridazin-4-yl)oxy)phenyl)-3,5-dioxo-2,3,4,5-tetrahydro-1,2,4-triazine-6-carbonitrile]: the “Results” value (target temperature 200° C.) is “Form C”. With `[2H]C([2H])([2H])[C@@H]1CCc2c(Oc3c(Cl)cc(-n4nc(C#N)c(=O)[nH]c4=O)cc3Cl)n[nH]c(=O)c21` [Form V, (R)-2-(3,5-dichloro-4-((7-(methyl-d3)-1-oxo-2,5,6,7-tetrahydro-1H-cyclopenta [d]pyridazin-4-yl)oxy)phenyl)-3,5-dioxo-2,3,4,5-tetrahydro-1,2,4-triazine-6-carbonitrile], for the setting “heated to 150° C.”, the “crystal form after thermal crystal transformation” value is reported as “Form V”.

In the case of `[2H]C([2H])([2H])[C@@H]1CCc2c(Oc3c(Cl)cc(-n4nc(C#N)c(=O)[nH]c4=O)cc3Cl)n[nH]c(=O)c21` [Form M, (R)-2-(3,5-dichloro-4-((7-(methyl-d3)-1-oxo-2,5,6,7-tetrahydro-1H-cyclopenta [d]pyridazin-4-yl)oxy)phenyl)-3,5-dioxo-2,3,4,5-tetrahydro-1,2,4-triazine-6-carbonitrile], the “Results” value (target temperature 260° C.) is on record as “Form C”. For the compound `[2H]C([2H])([2H])[C@@H]1CCc2c(Oc3c(Cl)cc(-n4nc(C#N)c(=O)[nH]c4=O)cc3Cl)n[nH]c(=O)c21` [Form L, (R)-2-(3,5-dichloro-4-((7-(methyl-d3)-1-oxo-2,5,6,7-tetrahydro-1H-cyclopenta [d]pyridazin-4-yl)oxy)phenyl)-3,5-dioxo-2,3,4,5-tetrahydro-1,2,4-triazine-6-carbonitrile], the “crystal form after thermal crystal transformation” value by setting is: (heated to 100° C.) “Form A”; (heated to 190° C.) “Form C”. In addition, the “Results” value is “Form A” (target temperature 100° C.) and “Form C” (target temperature 190° C.). As to `[2H]C([2H])([2H])[C@@H]1CCc2c(Oc3c(Cl)cc(-n4nc(C#N)c(=O)[nH]c4=O)cc3Cl)n[nH]c(=O)c21` [Form J, (R)-2-(3,5-dichloro-4-((7-(methyl-d3)-1-oxo-2,5,6,7-tetrahydro-1H-cyclopenta [d]pyridazin-4-yl)oxy)phenyl)-3,5-dioxo-2,3,4,5-tetrahydro-1,2,4-triazine-6-carbonitrile], the “Results” value (target temperature 160° C.) is “Form C”.
